In experiment [1] the target is DCN1 (DCUND1) protein PONY domain (Homo sapiens (Human), UniProt Q96GG9). As to the kind of experiment: TR-FRET assay (binding to DCN-1, displacement of FAM-labeled probe). The method in brief:
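Compounds read at 1, 5 and 24 h, 0.1% final DMSO, by TR-FRET between terbium-streptavidin on biotinylated DCN1 PONY domain (E. coli) and a FAM-tagged non-covalent inhibitor probe. Two setups used, 5 nM protein with 20 nM labelled probe, or 0.31 nM protein with 100 nM labelled plus 800 nM unlabelled probe; buffer had TritonX and 200 mM NaCl. % activity relative to high (with probe) and low (without probe) controls.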

For experiment [2], the target named is DCN1 protein (Homo sapiens (Human), UniProt Q96GG9). The experiment in a line: Intact protein MS analysis with the RapidFire-TOF system (covalent adduct formation). In kind it is binding. As to conditions: 400 nM DCN1, incubated at room temperature for 3 hours. As for the experimental part: (§1) DCN1 protein, His-TEV-DCN1, were expressed in E. Coli. The His-tagged protein was first purified with an Ni-NTA column. The His-tag was cleaved using His-tag TEV protease and the His-tags were removed using a second Ni-NTA column. Protein purity was verified with SDS-PAGE and intact MS. DCN1 was dissolved in a buffer containing 25 mM Tris-HCl, 200 mM NaCl, and 1 mM DTT at 400 nM. 11 concentrations of compounds were added to the DCN1 solution and incubated at room temperature for 3 hours, unless otherwise specified. The reaction plates were quenched by adding 0.2% formic acid. Quenched assay plates were analyzed with an Agilent RapidFire 360 system connected to an Agilent 6545 Q-TOF mass spectrometer equipped with an AJS source. 10 μL of sample volume was loaded onto a custom packed cartridge (4 μL, PLRP-S 30 μm/1000 Å pore; Optimize Technologies) with loading buffer (ddH2O with 0.09% (vol/vol) formic acid and 0.01% (vol/vol) trifluoroacetic acid; 1.25 ml/min) for 6 seconds before being eluted directly into the mass spectrometer in elution buffer (80% acetonitrile with 0.09% (vol/vol) formic acid and 0.01% (vol/vol) trifluoroacetic acid; 0.5 ml/min) for 7 seconds. The cartridge was re-equilibrated with loading buffer for 1 second before collection of the next sample. The Q-TOF was operated in TOF-only positive ionization mode set to the following parameters: Gas Temp=350 C, Drying Gas=7 l/min, Nebulizer=50 psi, Sheath Gas Temp=400 C, Sheath Gas Flow=12 l/min, VCap=4000 V, Nozzle Voltage=1000 V, Fragmentor=125 V, Skimmer=65 V and Oct 1 RF Vpp=750V. Raw MS data files were deconvoluted and analyzed using the Agilent MassHunter Bioconfirm software package to identify both parent protein and expected compound adduct mass signatures.
DCN1 protein, sequence (Q96GG9 whole entry): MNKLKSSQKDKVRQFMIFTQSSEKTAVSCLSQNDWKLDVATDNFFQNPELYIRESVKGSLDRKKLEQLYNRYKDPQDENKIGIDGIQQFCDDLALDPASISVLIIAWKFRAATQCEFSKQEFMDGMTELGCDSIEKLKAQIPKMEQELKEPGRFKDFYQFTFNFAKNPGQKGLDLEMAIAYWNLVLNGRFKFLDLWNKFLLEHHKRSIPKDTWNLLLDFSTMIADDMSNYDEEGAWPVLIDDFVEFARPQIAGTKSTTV
An MS assay was performed to evaluate the ability of the compounds to covalently modify DCN-1.
as §1, with “Vcap=4000” for “VCap=4000”

Where [3] appears, read: 24 hr after treatment with compound, read-out: TR FRET IC50 24 hr.
[4] abbreviates: read-out: TR FRET IC50 1 hr, 1 hr after treatment with compound.
The mark [5] stands for this setting: TR FRET IC50 1 hr (nM), 1 hr after treatment with compound.

Where two headings read alike, the source gives them in different places.

DCN1 (DCUND1) protein PONY domain, sequence (Q96GG9 60-248): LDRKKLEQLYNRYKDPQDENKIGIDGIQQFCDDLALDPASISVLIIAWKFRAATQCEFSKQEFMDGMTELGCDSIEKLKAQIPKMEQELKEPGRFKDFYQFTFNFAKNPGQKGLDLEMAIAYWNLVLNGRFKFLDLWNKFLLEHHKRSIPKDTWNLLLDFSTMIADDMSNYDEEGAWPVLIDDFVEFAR

With `C=C(CN1CCN(C2COC2)CC1)C(=O)NCc1cccc([C@@H]2c3cnn(-c4ccccc4)c3N(CC)C(=O)[C@H]2NC(=O)c2cccc(C(F)(F)F)c2)c1` [Compound I-4], the IC50 in experiment [1] (setting [3]) and in experiment [1] (setting [4]) was no more than 200 nM in each case. Besides, in experiment [2], the maximum response (Emax) was in the range of 80 to 100%.

Turning to `CC#CC(=O)Nc1ccccc1[C@H]1c2cnn(-c3ccccc3)c2N(CC)C(=O)[C@@H]1NC(=O)c1cccc(C(F)(F)F)c1` (racemic) [Compound I-159], the half-inhibitory concentration (IC50) in experiment [1] (setting [3]) and in experiment [1] (setting [5]) was greater than 3000 nM in each case. Further, in experiment [2], the Emax is 0 to 30%.

For `C=C(CN1CCOCC1)C(=O)NCc1cccc([C@@H]2c3c(C)nn(-c4ccccc4)c3N(CC)C(=O)[C@H]2NC(=O)c2cccc(C(F)(F)F)c2)c1` [Compound I-215], the IC50 in experiment [1] (setting [3]) and in experiment [1] (setting [4]) was no more than 200 nM each time. Further, the maximal effect (Emax) in experiment [2] was in the range of 80 to 100%.

For the compound `C/C=C(\CN1CCN(C2COC2)CC1)C(=O)NCc1cccc([C@@H]2c3cnn(-c4ccccc4)c3N(CC)C(=O)[C@H]2NC(=O)c2ccn(C(F)(F)F)n2)c1` [Compound I-230A, N-((4R,5S)-7-ethyl-4-(3-(((E)-2-((4-(oxetan-3-yl)piperazin-1-yl)methyl)but-2-enamido)methyl)phenyl)-6-oxo-1-phenyl-4,5,6,7-tetrahydro-1H-pyrazolo[3,4-b]pyridin-5-yl)-1-(trifluoromethyl)-1H-pyrazole-3-carboxamide], the IC50 in experiment [1] (setting [3]) was no more than 200 nM; in experiment [1] (setting [5]), 200 to 1000 nM. In experiment [2], the maximum response (Emax) was 80 to 100%.

Take `CCN1C(=O)[C@H](NC(=O)c2cccc(C(F)(F)F)c2)[C@@H](c2cccc(NC(=O)/C(C#N)=C/C3CC3)c2)c2c(C)nn(-c3ccccc3)c21` (racemic) [Compound I-68, rac-N-((4R,5S)-4-(3-((E)-2-cyano-3-cyclopropylacrylamido)phenyl)-7-ethyl-3-methyl-6-oxo-1-phenyl-4,5,6,7-tetrahydro-1H-pyrazolo[3,4-b]pyridin-5-yl)-3-(trifluoromethyl)benzamide]: the values for the IC50 in experiment [1] (setting [3]) and in experiment [1] (setting [5]) were 200 to 1000 nM and no more than 200 nM, respectively. This compound gave a maximum response (Emax) in experiment [2] of 80 to 100%.

Consider `CCN1C(=O)[C@@H](NC(=O)c2nccc(C(F)(F)F)n2)[C@H](c2cccc(NC(=O)C3=CCN(C)C3)c2)c2c(C)nn(-c3ccccc3)c21` [Compound I-224], for which the IC50 in experiment [1] (setting [3]) was no more than 200 nM; in experiment [1] (setting [5]) it was 200 to 1000 nM. For the same compound, the Emax in experiment [2] lay within 80 to 100%.

Take `C=C(CN1CCOCC1)C(=O)NCc1cccc([C@@H]2c3cnn(-c4ccccc4)c3N(CC)C(=O)[C@H]2NC(=O)c2nccc(C(F)(F)F)n2)c1` [Compound I-82]: the IC50 in experiment [1] (setting [3]) and in experiment [1] (setting [4]) was no more than 200 nM each time. In experiment [2], this compound gave a maximum response (Emax) of 80 to 100%.

For the compound `CCN1C(=O)[C@H](NC(=O)c2cccc(C(F)(F)F)c2)[C@@H](c2cccc(N3CC=CS3(=O)=O)c2)c2c(C)nn(-c3ccccc3)c21` (racemic) [Compound I-130, rac-N-((4R,5S)-4-(3-(1,1-dioxidoisothiazol-2 (3H)-yl)phenyl)-7-ethyl-3-methyl-6-oxo-1-phenyl-4,5,6,7-tetrahydro-1H-pyrazolo[3,4-b]pyridin-5-yl)-3-(trifluoromethyl)benzamide], the concentration for half-maximal inhibition (IC50) is 200 to 1000 nM in experiment [1] (setting [3]) and greater than 3000 nM in experiment [1] (setting [5]). This compound gave a maximal effect (Emax) in experiment [2] of 0 to 30%.

As for `C/C=C(\CN1CCN(C2COC2)CC1)C(=O)NCc1cccc([C@@H]2c3cnn(-c4ccccc4)c3N(CC)C(=O)[C@H]2NC(=O)c2cccc(C(F)(F)F)c2)c1` [Compound I-222], the IC50 was no more than 200 nM in experiment [1] (setting [3]) and 200 to 1000 nM in experiment [1] (setting [5]). Besides, the maximum response (Emax) in experiment [2] was in the range of 80 to 100%.

For the compound `CCN1C(=O)[C@H](NC(=O)c2cccc(C(F)(F)F)c2)[C@@H](c2cccc(NC(=O)/C(C#N)=C/C(C)(C)C)c2)c2c(C)nn(-c3ccccc3)c21` (racemic) [Compound I-69, ˜{N}—[˜{rac}-(4˜{S},5˜{R})-7-ethyl-3-methyl-6-oxo-1-phenyl-4-[3-[[˜{rac}-(˜{E})-2-cyano-4,4-dimethyl-pent-2-enoyl]amino]phenyl]-4,5-dihydropyrazolo[3,4-b]pyridin-5-yl]-3-(trifluoromethyl)benzamide], the concentration for half-maximal inhibition (IC50) in experiment [1] (setting [3]) and in experiment [1] (setting [5]) was 200 to 1000 nM each time. Further, the maximal effect (Emax) in experiment [2] lay in the range of 80 to 100%.

Regarding `CCN1CC=C(C(=O)Nc2cccc([C@@H]3c4c(C)nn(-c5ccccc5)c4N(CC)C(=O)[C@H]3NC(=O)c3nccc(C(F)(F)F)n3)c2)C1` [Compound I-225], in experiment [1] (setting [5]), the IC50 is 200 to 1000 nM. Moreover, the Emax in experiment [2] lay in the range of 80 to 100%.

On to `CCN1C(=O)[C@H](NC(=O)c2cccc(C(F)(F)F)c2)[C@@H](c2cccc(NC(=O)/C=C/CN3CCOCC3)c2)c2c(C)nn(-c3ccccc3)c21` (racemic) [Compound I-47], for which the values for the IC50 in experiment [1] (setting [3]) and in experiment [1] (setting [4]) were 1000 to 3000 nM and greater than 3000 nM, respectively. In experiment [2], this compound came in with an Emax of 0 to 30%.

For the compound `C/C=C(\CN1CCN(C2COC2)CC1)C(=O)Nc1cccc([C@@H]2c3cnn(-c4ccccc4)c3N(CC)C(=O)[C@H]2NC(=O)c2ccn(C3CC3)n2)c1` [Compound I-233], the half-inhibitory concentration (IC50) in experiment [1] (setting [3]) and in experiment [1] (setting [5]) was no more than 200 nM each time. For the same compound, the Emax in experiment [2] lay in the range of 80 to 100%.

In the case of `CCN1C(=O)[C@H](NC(=O)c2cccc(C(F)(F)F)c2)[C@@H](c2cccc(NC(=O)/C=C/CN(C)C)c2)c2c(C)nn(-c3ccccc3)c21` (racemic) [Compound I-38], in experiment [1] (setting [5]), the concentration for half-maximal inhibition (IC50) lay within 1000 to 3000 nM. The compound further came in with a maximal effect (Emax) in experiment [2] of 80 to 100%.

Regarding `C=C(CN1CC(F)(F)C1)C(=O)Nc1cccc([C@@H]2c3c(C)nn(-c4ccccc4)c3N(CC)C(=O)[C@H]2NC(=O)c2cccc(C(F)(F)F)c2)c1` (racemic) [Compound I-11], the 50% inhibitory concentration (IC50) in experiment [1] (setting [3]) and in experiment [1] (setting [4]) was no more than 200 nM in each case. Also, the maximal response (Emax) in experiment [2] fell in the range of 80 to 100%.

Consider `CCN1C(=O)[C@H](NC(=O)c2cccc(C(F)(F)F)c2)[C@@H](c2cccc(N3CC=CC3=O)c2)c2c(C)nn(-c3ccccc3)c21` (racemic) [Compound I-28, rac-N-((4R,5S)-7-ethyl-3-methyl-6-oxo-4-(3-(2-oxo-2,5-dihydro-1H-pyrrol-1-yl)phenyl)-1-phenyl-4,5,6,7-tetrahydro-1H-pyrazolo[3,4-b]pyridin-5-yl)-3-(trifluoromethyl)benzamide], for which the IC50 in experiment [1] (setting [3]) and in experiment [1] (setting [5]) was 1000 to 3000 nM throughout. Besides, the maximal response (Emax) in experiment [2] was 80 to 100%.

Take `C=C(CN1CCN(C2COC2)CC1)C(=O)N(C)Cc1cccc([C@@H]2c3cnn(-c4ccccc4)c3N(CC)C(=O)[C@H]2NC(=O)c2cccc(C(F)(F)F)c2)c1` [Compound I-218]: the IC50 in experiment [1] (setting [3]) and in experiment [1] (setting [5]) was no more than 200 nM throughout. For the same compound, the maximal effect (Emax) in experiment [2] lay within 80 to 100%.

In the case of `C=C(CN1CCC(F)(F)C1)C(=O)Nc1cccc([C@@H]2c3c(C)nn(-c4ccccc4)c3N(CC)C(=O)[C@H]2NC(=O)c2nccc(C(F)(F)F)n2)c1` [Compound I-228], the concentration for half-maximal inhibition (IC50) in experiment [1] (setting [3]) and in experiment [1] (setting [4]) was no more than 200 nM throughout. The maximal effect (Emax) in experiment [2] was in the range of 80 to 100%.

Source of the values: patent US12435087B2, “Modulators of DCN-1 and methods of use thereof” (Cellarity, Inc., priority 2023, dated 2025).
